Measured values from ChEMBL document CHEMBL5154690, “Discovery of a tricyclic farnesoid X receptor agonist HEC96719, a clinical candidate for treatment of non-alcoholic steatohepatitis” (Eur J Med Chem, 2022).
Active and inactive are the calls of the source. The calls are words filed in the database; no cut-off is given here.

Tests used:
[1] = biological target: T1, G-protein coupled bile acid receptor 1 (Homo sapiens) (UniProt Q8TDU6); test: Agonist activity in human GPBAR1 assessed as increase in intracellular cAMP level relative to control; format: functional, cell-based
T1 sequence (whole entry): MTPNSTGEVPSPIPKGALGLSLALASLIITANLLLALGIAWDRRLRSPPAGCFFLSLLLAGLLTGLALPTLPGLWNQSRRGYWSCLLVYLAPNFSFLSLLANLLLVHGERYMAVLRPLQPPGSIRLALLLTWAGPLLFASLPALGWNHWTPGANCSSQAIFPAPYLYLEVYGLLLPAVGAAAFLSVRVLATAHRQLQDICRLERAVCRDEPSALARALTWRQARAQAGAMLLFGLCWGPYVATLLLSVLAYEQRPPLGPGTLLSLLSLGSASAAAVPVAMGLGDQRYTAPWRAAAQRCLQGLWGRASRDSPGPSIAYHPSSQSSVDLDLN

[2] = biological target: T2, G-protein coupled bile acid receptor 1 (Homo sapiens, UniProt Q8TDU6); test: Agonist activity in human GPBAR1 assessed as increase in intracellular cAMP level; format: functional, cell-based
T2 sequence (Q8TDU6 whole entry): T1 sequence (whole entry)

[3] = Drug recovery in ileum of male Sprague-Dawley rat at 4.5 mg/kg, po administered as C14-lableled compound and assessed as radioactivity and measured at 1 hr; format: ADME, organism-based; conditions: in vivo
[4] = Mutagenecity in Salmonella typhimurium TA98 measured by Ames test; format: toxicity; conditions: salmonella enterica subsp. enterica serovar typhimurium
[5] = Drug recovery in pancreas of male Sprague-Dawley rat at 4.5 mg/kg, po administered as C14-lableled compound and assessed as radioactivity and measured at 24 hrs; format: ADME, organism-based; conditions: in vivo
[6] = Drug metabolism in feces of Sprague-Dawley rat assessed as production of toxic metabolites at 4.5 mg/kg, po administered as C14-lableled compound with single dose; format: ADME, organism-based; conditions: in vivo
[7] = Drug recovery in liver of male Sprague-Dawley rat at 4.5 mg/kg, po administered as C14-lableled compound and assessed as radioactivity and measured at 0.25 hrs; format: ADME, organism-based; conditions: in vivo
Mus musculus [8] = test: Antifibrotic activity in C57BL/6 mouse model of CCI4-induced liver fibrosis assessed as decrease in serum ALT level at 1 mg/kg, po administered once daily for 4 weeks; format: functional, organism-based
[9] = Half-life in male Beagle dog at 5 mg/kg, po measured by LC-MS/MS analysis; format: ADME, organism-based, Canis lupus familiaris; conditions: in vivo
[10] = Volume of distribution at steady state in male Sprague-Dawley rat at 1 mg/kg, iv measured by LC-MS/MS analysis; format: ADME, organism-based; conditions: in vivo, read-out: Vdss
Mus musculus [11] = test: Antifibrotic activity in C57BL/6 mouse model of CCI4-induced liver fibrosis assessed as decrease in serum TBIL level at 1 mg/kg, po administered once daily for 4 weeks; format: functional, organism-based
[12] = Oral bioavailability in male Beagle dog at 5 mg/kg measured by LC-MS/MS analysis; format: ADME, organism-based, Canis lupus familiaris; conditions: in vivo
Mus musculus [13] = test: Anti-NASH activity against high fat (HF) diet-induced nonalcoholic steatohepatitis in leptin-deficient ob/ob mouse model assessed as reduction in serum ALT level at 3 mg/kg, po administered once daily from week 5 to 10; format: functional, organism-based
[14] = Half-life in male Sprague-Dawley rat at 1 mg/kg, iv measured by LC-MS/MS analysis; format: ADME, organism-based; conditions: in vivo
[15] = AUC (0 to t) in male Sprague-Dawley rat at 1 mg/kg, iv measured by LC-MS/MS analysis; format: ADME, organism-based; design: dose 1 mg/kg, route iv; conditions: in vivo
[16] = Drug recovery in spleen of male Sprague-Dawley rat at 4.5 mg/kg, po administered as C14-lableled compound and assessed as radioactivity and measured at 24 hrs; format: ADME, organism-based; conditions: in vivo, BLD = below limit of detection
[17] = Drug recovery in heart of male Sprague-Dawley rat at 4.5 mg/kg, po administered as C14-lableled compound and assessed as radioactivity and measured at 6 hrs; format: ADME, organism-based; conditions: in vivo, BLD = below limit of detection
[18] = Drug recovery in plasma of male Sprague-Dawley rat at 4.5 mg/kg, po administered as C14-lableled compound and assessed as radioactivity and measured at 6 hrs; format: ADME, organism-based; conditions: in vivo
[19] = Ratio of drug level in skin to plasma in male Sprague-Dawley rat at 4.5 mg/kg, po administered as C14-lableled compound and measured at 0.25 to 6 hrs; format: ADME, organism-based; conditions: other tissue, time 0.25-6 hrs
[20] = Drug recovery in pancreas of male Sprague-Dawley rat at 4.5 mg/kg, po administered as C14-lableled compound and assessed as radioactivity and measured at 0.25 hrs; format: ADME, organism-based; conditions: in vivo
[21] = AUC (0 to t) in male Sprague-Dawley rat at 5 mg/kg, po measured by LC-MS/MS analysis; format: ADME, organism-based; design: dose 5 mg/kg, route po; conditions: in vivo
Bile acid receptor = biological target: T3, Bile acid receptor (Homo sapiens, UniProt Q96RI1); test: Agonist activity at human FXR expressed in HEK293T cells by luciferase reporter assay; format: cell-based
T3 sequence (Q96RI1 whole entry): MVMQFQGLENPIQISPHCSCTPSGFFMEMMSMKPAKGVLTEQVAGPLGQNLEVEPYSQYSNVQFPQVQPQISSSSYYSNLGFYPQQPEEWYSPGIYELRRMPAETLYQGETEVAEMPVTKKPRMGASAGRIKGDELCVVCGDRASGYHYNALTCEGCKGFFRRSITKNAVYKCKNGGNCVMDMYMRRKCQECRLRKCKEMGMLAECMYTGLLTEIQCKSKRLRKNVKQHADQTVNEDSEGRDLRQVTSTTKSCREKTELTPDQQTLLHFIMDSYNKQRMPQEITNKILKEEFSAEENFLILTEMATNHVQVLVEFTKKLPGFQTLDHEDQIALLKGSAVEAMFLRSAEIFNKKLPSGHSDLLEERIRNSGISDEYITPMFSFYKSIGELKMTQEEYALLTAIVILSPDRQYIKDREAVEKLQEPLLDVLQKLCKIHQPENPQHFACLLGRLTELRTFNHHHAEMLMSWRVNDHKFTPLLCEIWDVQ

[22] = biological target: Voltage-gated inwardly rectifying potassium channel KCNH2 (Homo sapiens, UniProt Q12809); test: Inhibition of hERG; format: toxicity
[23] = Drug recovery in lung of male Sprague-Dawley rat at 4.5 mg/kg, po administered as C14-lableled compound and assessed as radioactivity and measured at 0.25 hrs; format: ADME, organism-based; conditions: in vivo
[24] = Ratio of drug level in heart to plasma in male Sprague-Dawley rat at 4.5 mg/kg, po administered as C14-lableled compound and measured at 0.25 to 6 hrs; format: ADME, organism-based; conditions: other tissue, time 0.25-6 hrs
[25] = Drug recovery in liver of male Sprague-Dawley rat at 4.5 mg/kg, po administered as C14-lableled compound and assessed as radioactivity and measured at 1 hr; format: ADME, organism-based; conditions: in vivo
[26] = Half-life in male C57BL/6 mouse at 5 mg/kg, po measured by LC-MS/MS analysis; format: ADME, organism-based; conditions: in vivo
[27] = Oral bioavailability in male C57BL/6 mouse at 5 mg/kg measured by LC-MS/MS analysis; format: ADME, organism-based; conditions: in vivo
[28] = Drug recovery in ileum of male Sprague-Dawley rat at 4.5 mg/kg, po administered as C14-lableled compound and assessed as radioactivity and measured at 6 hrs; format: ADME, organism-based; conditions: in vivo
[29] = Drug recovery in skin of male Sprague-Dawley rat at 4.5 mg/kg, po administered as C14-lableled compound and assessed as radioactivity and measured at 6 hrs; format: ADME, organism-based, Skin of body; conditions: in vivo, BLD = below limit of detection

Chain of Voltage-gated inwardly rectifying potassium channel KCNH2 (Q12809 whole entry): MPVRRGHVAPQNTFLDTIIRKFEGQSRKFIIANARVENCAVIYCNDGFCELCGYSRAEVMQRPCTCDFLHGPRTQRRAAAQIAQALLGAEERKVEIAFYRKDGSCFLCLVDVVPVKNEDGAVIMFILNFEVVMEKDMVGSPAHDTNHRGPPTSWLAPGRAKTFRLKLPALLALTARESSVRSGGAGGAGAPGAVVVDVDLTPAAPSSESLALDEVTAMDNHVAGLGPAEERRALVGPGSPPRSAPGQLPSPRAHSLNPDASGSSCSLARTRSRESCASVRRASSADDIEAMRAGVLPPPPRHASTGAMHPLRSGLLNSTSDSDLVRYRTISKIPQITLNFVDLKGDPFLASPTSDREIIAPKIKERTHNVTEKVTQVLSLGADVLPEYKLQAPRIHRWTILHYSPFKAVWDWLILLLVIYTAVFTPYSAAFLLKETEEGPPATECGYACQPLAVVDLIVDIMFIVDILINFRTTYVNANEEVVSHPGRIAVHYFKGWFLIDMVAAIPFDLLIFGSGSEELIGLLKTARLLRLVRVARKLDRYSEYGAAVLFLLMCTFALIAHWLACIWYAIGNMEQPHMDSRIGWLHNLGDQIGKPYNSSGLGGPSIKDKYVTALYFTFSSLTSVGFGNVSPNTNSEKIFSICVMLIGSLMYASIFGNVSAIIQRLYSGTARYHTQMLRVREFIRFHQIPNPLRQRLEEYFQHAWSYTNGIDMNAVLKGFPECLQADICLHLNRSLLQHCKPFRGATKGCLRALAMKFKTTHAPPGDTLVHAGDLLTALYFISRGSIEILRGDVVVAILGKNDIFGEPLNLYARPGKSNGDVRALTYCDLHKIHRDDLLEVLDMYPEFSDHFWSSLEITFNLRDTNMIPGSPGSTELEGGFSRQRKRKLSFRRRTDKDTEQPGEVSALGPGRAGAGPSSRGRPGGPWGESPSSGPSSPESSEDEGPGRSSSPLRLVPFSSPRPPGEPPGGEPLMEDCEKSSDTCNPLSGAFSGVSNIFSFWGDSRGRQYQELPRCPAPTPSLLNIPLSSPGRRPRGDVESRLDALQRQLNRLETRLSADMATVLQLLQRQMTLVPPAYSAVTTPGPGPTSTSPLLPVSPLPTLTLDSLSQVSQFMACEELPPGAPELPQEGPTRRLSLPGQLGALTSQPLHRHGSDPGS

O=C(O)c1ccc2c(c1)Oc1ccc(OCc3c(-c4c(Cl)cccc4Cl)noc3C3CC3)nc1C1(CC1)C2
Activity [1]: 29% | EC50 [2]: > 10 µM | Drug recovery [3]: 1553 ngequiv/g | Activity [4]: Non-Toxic | Drug recovery [5]: 206 ngequiv/g | Drug metabolism [6]: Metabolite_Notdetected | Drug recovery [7]: 5308 ngequiv/g | Activity (Mus musculus [8]): Active | half-life [9]: 3.42 h | Vd [10]: 0.65 L/kg | Activity (Mus musculus [11]): Active | bioavailability [12]: 42.3% | Activity (Mus musculus [13]): Active | half-life [14]: 0.28 h | AUC(0-t) [15]: 0.473 µg·h/mL | Drug recovery [16]: Bld | Drug recovery [17]: Bld | Drug recovery [18]: 27 ngequiv/g | Ratio [19]: 0.56 | Drug recovery [20]: 177 ngequiv/g | AUC(0-t) [21]: 1.18 µg·h/mL | EC50 (Bile acid receptor): 0.00155 µM | IC50 [22]: > 5.24 µM | Drug recovery [23]: 868 ngequiv/g | Ratio [24]: 1 | Drug recovery [25]: 6520 ngequiv/g | half-life [26]: 1.06 h | bioavailability [27]: 82.5% | Drug recovery [28]: 5620 ngequiv/g | Drug recovery [29]: Bld
